Active and inactive are the calls of the source. No cut-off for these calls is given here.
Assays:
[1] = target: Beta-2 adrenergic receptor (Homo sapiens) (UniProt P07550); experiment: Binding affinity to GST tagged human beta 2 adrenergic receptor PDZ1 domain upto 300 uM
[2] = target: Cystic fibrosis transmembrane conductance regulator (Homo sapiens) (UniProt P13569); experiment: Binding affinity to GST tagged human CFTR PDZ2 domain upto 300 uM
Cystic fibrosis transmembrane conductance regulator (Homo sapiens), sequence (P13569 whole entry, looked up, the tested form may be a part): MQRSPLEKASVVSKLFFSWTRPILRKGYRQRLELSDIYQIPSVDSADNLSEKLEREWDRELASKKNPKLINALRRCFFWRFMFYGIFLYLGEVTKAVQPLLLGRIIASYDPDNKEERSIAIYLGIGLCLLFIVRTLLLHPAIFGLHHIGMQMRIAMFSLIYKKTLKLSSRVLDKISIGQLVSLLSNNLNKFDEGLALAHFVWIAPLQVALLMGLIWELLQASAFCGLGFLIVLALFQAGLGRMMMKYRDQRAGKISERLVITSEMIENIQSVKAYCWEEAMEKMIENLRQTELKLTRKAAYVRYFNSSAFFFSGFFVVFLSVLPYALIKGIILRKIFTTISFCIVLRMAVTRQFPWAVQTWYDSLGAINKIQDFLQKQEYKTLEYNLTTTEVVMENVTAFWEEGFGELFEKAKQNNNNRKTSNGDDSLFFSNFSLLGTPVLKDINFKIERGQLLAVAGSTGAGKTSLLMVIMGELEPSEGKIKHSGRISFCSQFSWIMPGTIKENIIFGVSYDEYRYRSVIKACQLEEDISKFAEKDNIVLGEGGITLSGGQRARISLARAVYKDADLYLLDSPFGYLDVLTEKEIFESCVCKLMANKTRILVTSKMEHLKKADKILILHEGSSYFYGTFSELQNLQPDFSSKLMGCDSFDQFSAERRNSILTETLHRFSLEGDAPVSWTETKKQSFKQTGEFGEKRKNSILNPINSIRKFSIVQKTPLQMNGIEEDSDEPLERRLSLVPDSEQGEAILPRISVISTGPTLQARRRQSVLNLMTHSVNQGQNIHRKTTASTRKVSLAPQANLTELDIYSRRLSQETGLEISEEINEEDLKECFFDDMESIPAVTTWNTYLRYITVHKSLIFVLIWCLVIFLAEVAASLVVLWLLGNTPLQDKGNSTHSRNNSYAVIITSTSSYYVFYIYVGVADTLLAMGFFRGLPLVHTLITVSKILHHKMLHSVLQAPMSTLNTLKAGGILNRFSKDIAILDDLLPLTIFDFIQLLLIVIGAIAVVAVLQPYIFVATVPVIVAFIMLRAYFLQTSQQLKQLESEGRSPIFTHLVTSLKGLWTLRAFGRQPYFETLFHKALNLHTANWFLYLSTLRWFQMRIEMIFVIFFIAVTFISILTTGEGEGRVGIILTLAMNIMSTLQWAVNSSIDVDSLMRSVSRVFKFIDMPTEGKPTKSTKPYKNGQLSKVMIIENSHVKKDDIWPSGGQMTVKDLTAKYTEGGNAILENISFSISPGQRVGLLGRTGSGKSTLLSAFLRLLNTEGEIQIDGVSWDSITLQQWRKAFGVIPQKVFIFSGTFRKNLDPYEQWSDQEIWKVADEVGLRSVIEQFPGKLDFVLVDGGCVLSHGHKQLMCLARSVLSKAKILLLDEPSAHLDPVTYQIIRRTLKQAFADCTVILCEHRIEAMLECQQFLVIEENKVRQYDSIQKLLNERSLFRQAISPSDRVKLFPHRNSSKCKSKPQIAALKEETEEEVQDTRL

Beta-2 adrenergic receptor (Homo sapiens), sequence (P07550 whole entry, looked up, the tested form may be a part): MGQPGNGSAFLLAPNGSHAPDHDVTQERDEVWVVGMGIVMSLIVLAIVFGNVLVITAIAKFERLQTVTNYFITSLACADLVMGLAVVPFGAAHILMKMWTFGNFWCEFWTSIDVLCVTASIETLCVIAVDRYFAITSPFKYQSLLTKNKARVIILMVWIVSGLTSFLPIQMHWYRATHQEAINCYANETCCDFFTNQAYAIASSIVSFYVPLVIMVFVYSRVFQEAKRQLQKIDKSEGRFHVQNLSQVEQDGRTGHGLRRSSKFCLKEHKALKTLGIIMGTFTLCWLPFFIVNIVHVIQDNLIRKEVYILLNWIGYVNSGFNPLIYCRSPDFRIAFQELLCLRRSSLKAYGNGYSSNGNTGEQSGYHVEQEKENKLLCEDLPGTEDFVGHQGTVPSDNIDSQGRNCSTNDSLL

- Activity [1]: inactive
- Activity [2]: inactive
Structure (SMILES): CCCNC(=O)c1[nH]c2cc(C)c(C(=O)O)cc2c1CCc1ccccc1

— ChEMBL document CHEMBL1141464, “Rational design of the first small-molecule antagonists of NHERF1/EBP50 PDZ domains” (Bioorg Med Chem Lett, 2008)
